Results: ChEMBL document CHEMBL4321815, “Discovery of an Extremely Potent Thiazine-Based β-Secretase Inhibitor with Reduced Cardiovascular and Liver Toxicity at a Low Projected Human Dose” (J Med Chem, 2019)

Key:
[1] = Cmax in mouse at 2.5 mg/kg, po; format: ADME, organism-based; design: dose 2.5 mg/kg, route oral; conditions: in vivo
[2] = Tmax in mouse at 2.5 mg/kg, po; format: ADME, organism-based; conditions: in vivo
[3] = AUC in mouse at 2.5 mg/kg, po; format: ADME, organism-based; conditions: in vivo
[4] = Oral bioavailability in mouse at 2.5 mg/kg; format: ADME, organism-based; conditions: in vivo
[5] = Volume of distribution at steady state in Sprague-Dawley rat at 0.5 mg/kg, iv by LC/MS/MS analysis; format: ADME, organism-based; conditions: in vivo, read-out: Vdss
[6] = Half life in Sprague-Dawley rat at 0.5 mg/kg, iv by LC/MS/MS analysis; format: ADME, organism-based; conditions: in vivo
[7] = Cmax in Sprague-Dawley rat at 2.5 mg/kg, po by LC/MS/MS analysis; format: ADME, organism-based; design: dose 2.5 mg/kg, route oral; conditions: in vivo
[8] = Tmax in Sprague-Dawley rat at 2.5 mg/kg, po by LC/MS/MS analysis; format: ADME, organism-based; conditions: in vivo
[9] = AUC in Sprague-Dawley rat at 2.5 mg/kg, po by LC/MS/MS analysis; format: ADME, organism-based; conditions: in vivo
[10] = Oral bioavailability in Sprague-Dawley rat at 2.5 mg/kg by LC/MS/MS analysis; format: ADME, organism-based; conditions: in vivo
[11] = Clearance in dog at 0.5 mg/kg, iv; format: ADME, organism-based, Canis lupus familiaris; conditions: in vivo
[12] = Volume of distribution at steady state in dog at 0.5 mg/kg, iv; format: ADME, organism-based, Canis lupus familiaris; conditions: in vivo, read-out: Vdss
[13] = Half life in dog at 0.5 mg/kg, iv; format: ADME, organism-based, Canis lupus familiaris; conditions: in vivo
[14] = Cmax in dog at 2.5 mg/kg, po; format: ADME, organism-based, Canis lupus familiaris; design: dose 2.5 mg/kg, route oral; conditions: in vivo
[15] = AUC in dog at 2.5 mg/kg, po; format: ADME, organism-based, Canis lupus familiaris; conditions: in vivo
[16] = Oral bioavailability in dog at 2.5 mg/kg; format: ADME, organism-based, Canis lupus familiaris; conditions: in vivo
[17] = Clearance in Cynomolgus monkey at 0.5 mg/kg, iv by LC/MS/MS analysis; format: ADME, organism-based, Macaca fascicularis; conditions: in vivo
[18] = Volume of distribution at steady state in Cynomolgus monkey at 0.5 mg/kg, iv by LC/MS/MS analysis; format: ADME, organism-based, Macaca fascicularis; conditions: in vivo, read-out: Vdss
[19] = Half life in Cynomolgus monkey at 0.5 mg/kg, iv by LC/MS/MS analysis; format: ADME, organism-based, Macaca fascicularis; conditions: in vivo
[20] = Tmax in Cynomolgus monkey at 2.5 mg/kg, po by LC/MS/MS analysis; format: ADME, organism-based, Macaca fascicularis; conditions: in vivo
[21] = Cmax in Cynomolgus monkey at 2.5 mg/kg, po by LC/MS/MS analysis; format: ADME, organism-based, Macaca fascicularis; design: dose 2.5 mg/kg, route oral; conditions: in vivo
[22] = AUC in Cynomolgus monkey at 2.5 mg/kg, po by LC/MS/MS analysis; format: ADME, organism-based, Macaca fascicularis; conditions: in vivo
[23] = Oral bioavailability in Cynomolgus monkey at 2.5 mg/kg by LC/MS/MS analysis; format: ADME, organism-based, Macaca fascicularis; conditions: in vivo
[24] = Toxicity in anesthetized guinea-pig at 0.19 to 6 mg/kg, iv administered for 5 mins; format: organism-based, Cavia porcellus; conditions: in vivo
[25] = Toxicity in anesthetized dog assessed as induction of adverse effect at 0.08 to 2.5 mg/kg, iv administered for 5 mins measured after 5 to 30 mins; format: organism-based, Canis lupus familiaris; conditions: in vivo
[26] = Toxicity in po dosed Sprague-Dawley rat administered as suspension for 2 weeks; format: organism-based; conditions: in vivo
[27] = AUC (0 to 24 hrs) in Sprague-Dawley rat at 250 mg/kg/day administered as suspension for 2 weeks; format: ADME, organism-based; design: dose 250 mg/kg/day, time < 24 hr; conditions: in vivo
[28] = Toxicity in po dosed Beagle dog assessed as induction of adverse effect administered for 2 weeks; format: organism-based, Canis lupus familiaris; conditions: in vivo
[29] = AUC in Beagle dog at 6 mg/kg/day, po administered for 2 weeks; format: ADME, organism-based, Canis lupus familiaris; conditions: in vivo
[30] = species on record: Canis familiaris; test: animal or person; format: functional, organism-based; conditions: Canis lupus familiaris, Beagle
[31] = Tmax in dog at 2.5 mg/kg, po; format: ADME, organism-based, Canis lupus familiaris; conditions: in vivo

Compound: C[C@H]1SC(N)=N[C@](C)(c2cc(NC(=O)c3cnc(OCF)cn3)ccc2F)[C@H]1F
- Cmax [1]: 0.195 µg/mL
- Tmax [2]: 0.3 h
- AUC [3]: 0.596 µg·h/mL
- bioavailability [4]: 58%
- Vd [5]: 5 L/kg
- half-life [6]: 2.2 h
- Cmax [7]: 0.148 µg/mL
- Tmax [8]: 0.7 h
- AUC [9]: 0.566 µg·h/mL
- bioavailability [10]: 38%
- clearance [11]: 0.156 L/h/kg
- Vd [12]: 2.8 L/kg
- half-life [13]: 13.7 h
- Cmax [14]: 0.685 µg/mL
- AUC [15]: 10.4 µg·h/mL
- bioavailability [16]: 95%
- clearance [17]: 1.38 L/h/kg
- Vd [18]: 7 L/kg
- half-life [19]: 4.9 h
- Tmax [20]: 3 h
- Cmax [21]: 0.054 µg/mL
- AUC [22]: 0.429 µg·h/mL
- bioavailability [23]: 24%
- NOAEL [24]: > 6.9 µg/mL
- fNOAEL [24]: 2.4 µM
- NOAEL [25]: > 6.9 µg/mL
- fNOAEL [25]: 1.3 µM
- NOAEL at 336 h [26]: 250 mg/kg/day
- AUC at 24 h [27]: 68 µg·h/mL
- NOAEL at 336 h [28]: 6 mg/kg/day
- AUC at 336 h [29]: 41 µg·h/mL
- EC50 [30]: 1.8 nM
- Tmax [31]: 1.8 h
